# Counter-ions that a name gives are not always drawn. Like-named read-outs stand apart in the source and are kept apart here.
# Legend:
# [1] = target: T1, CYP2D6 (Homo sapiens (Human), UniProt P10635); conditions: DEX O-demethylation; read-out: estimated mean IC50; cited from earlier work
# [2] = target: 5-HT2A receptors (Homo sapiens (Human), UniProt P28223); assay: 5-HT2A receptor antagonist radioligand binding ([3H]ketanserin); conditions: for Ki / pKi: Ki calculated using the Cheng Prusoff equation; for IC50: inhibition of [3H]ketanserin binding, HEK-293 cells expressing human recombinant 5HT2A receptor
# 5-HT2A receptors, sequence (P28223 whole entry): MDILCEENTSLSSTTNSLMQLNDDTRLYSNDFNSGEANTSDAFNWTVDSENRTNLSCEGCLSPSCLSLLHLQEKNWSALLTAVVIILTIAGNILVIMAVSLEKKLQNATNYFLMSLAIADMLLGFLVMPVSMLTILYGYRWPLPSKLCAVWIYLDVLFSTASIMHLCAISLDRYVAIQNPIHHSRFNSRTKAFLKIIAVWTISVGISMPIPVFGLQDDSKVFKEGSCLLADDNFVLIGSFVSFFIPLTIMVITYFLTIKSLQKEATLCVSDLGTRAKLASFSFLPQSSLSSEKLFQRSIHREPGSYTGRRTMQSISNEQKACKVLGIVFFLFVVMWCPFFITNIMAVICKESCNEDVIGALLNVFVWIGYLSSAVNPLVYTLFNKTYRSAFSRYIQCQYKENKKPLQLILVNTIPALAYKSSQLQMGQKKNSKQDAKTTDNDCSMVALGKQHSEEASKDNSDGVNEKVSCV
# Procedure: HEK-293 cells expressing human recombinant 5HT2A receptor were used in the antagonist radioligand binding studies. […] The inhibition constants (Ki) were calculated using the Cheng Prusoff equation. Both sarpogrelate enantiomers were potent inhibitors of [3H]ketanserin binding (Table 1). M1 enantiomers also potently bind to 5HT2A receptors with the Ki values that are approximately one order of magnitude higher than those of sarpogrelate enantiomers (Table 1). There are no meaningful differences between enantiomers in terms of 5-HT2A receptor binding for sarpogrelate or its main metabolite.
# 5HT2a ASSAY: Evaluation of the affinity of compounds for the human 5-HT2A receptor in transfected HEK-293 cells determined in a radioligand binding assay. Cell membrane homogenates (30-50 μg protein) were incubated 15 min at 37° C. with 0.5 nM [3H]ketanserin in the absence or presence of the test compound in a buffer containing 50 mM Tris-HCl (pH 7.4). Nonspecific binding was determined in the presence of 1 μM ketanserin. Following incubation, the samples were filtered rapidly under vacuum through glass fiber filters presoaked with 0.3% PEI and rinsed several times with ice-cold 50 mM Tris-HCl using a 96-sample cell harvester. The filters were dried then counted for radioactivity in a scintillation counter using a scintillation cocktail (WO2005013952A1, EP1500391A1[ab1], incorporated in its entirety by reference).
# [3] = target: T1, CYP2D6; assay: Dextromethorphan O-demethylase activity in human liver microsomes; type: biochemical; conditions: CYP 2D6 activity; pooled human liver microsomes 0.25 mg/ml; read-out: IC50
# Procedure: Dextromethorphan O-demethylase activity was determined in human liver microsomes. […] The incubation mixtures contained pooled human liver microsomes (final concentrations: 0.25 mg/ml), dextromethorphan, and a NADPH-generating system (1.3 mM NADP+, 3.3 mM glucose 6-phosphate, 3.3 mM MgCl2, and 0.4 U/ml glucose-6-phosphate dehydrogenase). […] All incubations were performed in triplicate, and mean values were used for analysis. […] Both sarpogrelate enantiomers inhibited CYP2D6-mediated dextromethorphan O-demethylation (Table 4).
# [4] = system: MK-801-induced hyperactivity; assay: MK-801-induced hyperactivity in rats; type: in vivo, rat
# Procedure: To confirm the ability of M1 enantiomers to induce effects that are relevant to CNS diseases and that are known for 5-HT2A receptor […], separate groups of female Wistar rats (n=6-9), housed 4-5 per cage under standard colony room conditions with free access to food and water, were pretreated intraperitoneally with varying doses of one of the two M1 enantiomers (0, 3 or 10 mg/kg) followed 15 minutes later by 0.1 mg/kg of MK801 or its vehicle and immediately thereafter placed into computer-controlled motor activity recording chambers (25×35.5×34 cm, L×W×H; transparent Plexiglas walls and a non-transparent plastic floor; enclosed within sound-attenuating ventilated cubicles) for 60 minutes, during which infrared photocell interruptions (5 cm and 14 cm off the floor) were recorded as a measure of motor activity. MK-801 is a phencyclidine-like NMDA receptor channel blocked commonly used in psychopharmacology research on novel therapies including novel antipsychotics.
# [5] = target: peripheral 5-HT2A receptors (Rattus norvegicus (Rat), UniProt P14842); conditions: cited from earlier work; for 5-methoxytryptamine-induced hyperglycemia: pretreatment
# [6] = target: T1, CYP2D6; conditions: dextromethorphan as substrate; cited from earlier work
# [7] = system: locomotor activity, stereotypy, ataxia; conditions: DO 15-120 mg/kg, DEX 15-120 mg/kg, PCP 1.25-20 mg/kg; rats; cited from earlier work
# [8] = Inhibition of dextromethorphan metabolism in vivo (dextromethorphan plasma levels after sarpogrelate); design: species or system rat; conditions: for Dextromethorphan AUC: dextromethorphan 50 mg/kg oral gavage, AUC 0-6 h, rat plasma
# Procedure: In a separate set of studies, ability of sarpogrelate to inhibit dextromethorphan metabolism in vivo was studied in rats. Adult male Sprague Dawley rats (RjHan:SD) purchased from Janvier Labs (France) were housed in a climate-controlled room under a 12 h light/12 h dark cycle with ad libitum access to food and water. Two-three days prior to blood sampling, rats were provided with a catheter in the jugular vein and, thereafter, rats treated once with Carprofen (5 mg/kg) directly after surgery and catheters were rinsed daily with Heparin (500 IE/ml) (20 μl/rat/day). On the day of the experiment, dextromethorphan (50 mg/kg) was administered by oral gavage, immediately followed by intravenous bolus injection of sarpogrelate (1, 3 or 10 mg/kg; racemate or one of the enantiomers) or vehicle via vascular access port at t=0 h. Blood samples were collected at four time points until 6 hours post dextromethorphan administration. Sample size was 80 μl Li-heparin whole blood/time point, i.e. 40 μl Li-heparin plasma/time point. Whole blood samples were stored on ice until centrifugation (10 min at 3000 g, 4° C.). Plasma was prepared within 45 min after collection, frozen at −20° C. and stored at this temperature until processed for LC-MS analysis.
# [9] = system: behavioral disturbances in Alzheimer's disease; conditions: human, in vivo; cited from earlier work
# [10] = system: NPI scores and sleep in patients with AD; conditions: human, in vivo; cited from earlier work
# [11] = system: PCP-induced hyperactivity; assay: Phencyclidine-induced hyperactivity in rats (sarpogrelate and dextromethorphan); type: in vivo, rat; conditions: in the presence of dextromethorphan; racemate 3 mg/kg, (−) sarpogrelate 1 or 3 mg/kg i.p.; PCP 5 mg/kg s.c.; 60-120 min
# [12] = cited from earlier work
# [13] = sarpogrelate dose 1 mg/kg i.v. bolus
# [14] = sarpogrelate dose 3 mg/kg i.v. bolus
# [15] = sarpogrelate dose 10 mg/kg i.v. bolus
# T1 sequence (P10635 whole entry): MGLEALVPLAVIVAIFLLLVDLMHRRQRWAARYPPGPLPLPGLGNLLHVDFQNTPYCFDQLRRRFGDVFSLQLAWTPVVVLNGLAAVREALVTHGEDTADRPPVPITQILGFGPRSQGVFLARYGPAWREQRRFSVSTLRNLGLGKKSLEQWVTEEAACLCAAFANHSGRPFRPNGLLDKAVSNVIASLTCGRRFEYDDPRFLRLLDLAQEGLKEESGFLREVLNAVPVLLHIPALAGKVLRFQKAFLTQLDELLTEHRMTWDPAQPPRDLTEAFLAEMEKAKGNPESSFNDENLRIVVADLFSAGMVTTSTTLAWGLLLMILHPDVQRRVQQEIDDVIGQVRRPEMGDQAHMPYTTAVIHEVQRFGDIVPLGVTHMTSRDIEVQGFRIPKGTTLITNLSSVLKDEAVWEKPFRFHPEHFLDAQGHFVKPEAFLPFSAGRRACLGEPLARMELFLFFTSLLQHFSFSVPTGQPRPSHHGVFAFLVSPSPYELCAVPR
structure (smiles),measurement,setting,value
Cc1nc2n(c(=O)c1CCN1CCC(c3noc4cc(F)ccc34)CC1)CCCC2 [risperidone],IC50,[1],39.1 µM
"COc1cccc(CCc2ccccc2OC[C@H](O)CN(C)C)c1 [Compound 148, (R)-1-(dimethylamino)-3-(2-(3-methoxyphenethyl)phenoxy) propan-2-ol]",Ki,[2],0.000631 µM
same,IC50,[2],0.0013 µM
same,IC50,[3],0.096 µM
same,"hyperactivity induced by MK-801 (motor activity, 60 min)","[4]; M1 enantiomer 3 or 10 mg/kg i.p., 15 min before 0.1 mg/kg MK801, female Wistar rats",reduced hyperactivity induced by MK-801
O=C(c1ccc(F)cc1)C1CCN(CCn2c(=O)[nH]c3ccccc3c2=O)CC1 [ketanserin],5-methoxytryptamine-induced hyperglycemia,[5],prevented
"COc1cccc([C@H](O)C2CCN(CCc3ccc(F)cc3)CC2)c1OC [M-100,907]","hyperactivity induced by MK-801 (motor activity, 60 min)",[4]; 3 mg/kg,reduced hyperactivity induced by MK-801
COc1ccc2[nH]cc(CCN)c2c1 [5-methoxytryptamine],blood glucose,[5]; agonist given alone,induced hyperglycemia
CN1CCN(CC/C=C2/c3ccccc3Sc3ccc(S(=O)(=O)N(C)C)cc32)CC1 [Cisthiothixene],IC50,[1],137 µM
C=C[C@H]1C[N@@]2CC[C@H]1C[C@@H]2[C@@H](O)c1ccnc2ccc(OC)cc12 [quinidine],inhibition type (Dixon plots),[6],fit well to all competitive inhibition types
"COc1cccc(CCc2ccccc2OC[C@@H](O)CN(C)C)c1 [Compound 147, (S)-1-(dimethylamino)-3-(2-(3-methoxyphenethyl)phenoxy)propan-2-ol]",Ki,[2],0.000794 µM
same,IC50,[2],0.0012 µM
same,IC50,[3],0.038 µM
"c1ccc(C2(N3CCCCC3)CCCCC2)cc1 [PCP, 1-(1-phenylcyclohexyl)piperidine]","behavioral effects given alone (locomotor hyperactivity, stereotypy, ataxia)",[7],"dose-dependent locomotor hyperactivity, stereotypy and ataxia"
COc1cccc(CCc2ccccc2OC[C@H](CN(C)C)OC(=O)CCC(=O)O)c1 [Compound 51],pKi,[2],8.4
same,IC50,[2],0.0075 µM
same,IC50,[3],0.58 µM
same,Fold increase (relative to vehicle) of dextromethorphan AUC,[8]; sarpogrelate dose 1 mg/kg,1.4 fold
same,Dextromethorphan AUC,[8]; [13],827.0 ng·h/mL
same,Fold increase (relative to vehicle) of dextromethorphan AUC,[8]; sarpogrelate dose 3 mg/kg,3.3 fold
same,Dextromethorphan AUC,[8]; [14],2021.5 ng·h/mL
same,Fold increase (relative to vehicle) of dextromethorphan AUC,[8]; sarpogrelate dose 10 mg/kg,6.9 fold
same,Dextromethorphan AUC,[8]; [15],4154.3 ng·h/mL
"CC12CC3CC(C)(C1)CC(N)(C3)C2 [memantine, 3,5-dimethyladamantan-1-amine]",agitation/aggression,[9],significant improvement in agitation/aggression
same,delusions,[9],significant improvement in delusions
same,disinhibition,[9],significant improvement in disinhibition
same,irritability/lability,[9],superior to control in irritability/lability
same,nighttime disturbance/diurnal rhythm disturbances,[9],significant improvement in nighttime disturbance/diurnal rhythm disturbances
same,fragmented sleep,[10],effective in reducing fragmented sleep
same,scores of NPI item for irritability/lability,[10],significantly decreases the scores of NPI item for irritability/lability
same,scores of NPI subscale for anxiety,[10],significantly decreases in the scores of NPI subscale for anxiety
COc1cccc(CCc2ccccc2OCC(CN(C)C)OC(=O)CCC(=O)O)c1 (stereo not shown) [Compound 52],pKi,[2],8.2
same,IC50,[2],0.011 µM
same,IC50,[3],1.3 µM
same,Fold increase (relative to vehicle) of dextromethorphan AUC,[8]; sarpogrelate dose 1 mg/kg,1.5 fold
same,Dextromethorphan AUC,[8]; [13],921.4 ng·h/mL
same,Fold increase (relative to vehicle) of dextromethorphan AUC,[8]; sarpogrelate dose 3 mg/kg,2.7 fold
same,Dextromethorphan AUC,[8]; [14],1649.5 ng·h/mL
same,Fold increase (relative to vehicle) of dextromethorphan AUC,[8]; sarpogrelate dose 10 mg/kg,5.3 fold
same,Dextromethorphan AUC,[8]; [15],3195.9 ng·h/mL
same,motor hyperactivity in PCP-treated rats,[11],inhibited motor hyperactivity in PCP-treated rats
"COc1cccc(CCc2ccccc2OCC(CN(C)C)OC(=O)CCC(=O)O)c1 (stereo not shown) [Compound 50 hydrochloride, Butanedioic acid, mono(2-(dimethylamino)-1-((2-(2-(3-methoxyphenyl)ethyl)phenoxy)methyl)ethyl) ester, hydrochloride]",mortality,"[12]; 5, 20, 80 and 320 mg/kg/day orally, 52 weeks, beagle dogs",No animal died or was sacrificed in extremis
same,Food consumption,"[12]; dog, in vivo, po",inhibited in females receiving 80 mg/kg/day and over
same,biochemical examination,"[12]; dog, in vivo, po","an increase in potassium in males receiving 80 mg/kg/day and over, and females receiving 320 mg/kg/day"
same,electrocardiographic or ophthalmoscopic examination,"[12]; dog, in vivo, po",no treatment related change
same,general conditions: emesis,"[12]; dog, in vivo, po",emesis was noted in males and females receiving 320 mg/kg/day and males receiving 80 mg/kg/day
same,general conditions: salivation,"[12]; dog, in vivo, po",salivation in females receiving 320 mg/kg/day
same,hematological examination,"[12]; dog, in vivo, po",an increase in a platelet count in males receiving 320 mg/kg/day
same,histopathological examination of the kidney,"[12]; dog, in vivo, po",fatty degeneration was revealed in the cortico-medullary border zone of the kidney in males receiving 320 mg/kg/day
same,urinalysis,"[12]; dog, in vivo, po",an increase in protein was revealed in females receiving 320 mg/kg/day
same,water consumption,"[12]; dog, in vivo, po",inhibition of water consumption
COc1cccc(OC(C)CNC(=N)Cc2cccc(C)c2)c1 (stereo not shown) [xylamidine],5-methoxytryptamine-induced hyperglycemia,[5],prevented
